Assay results published in the supplement of paper PMC10307832.

What was measured:
Test in all cases: relative viability (nuclei count vs DMSO), 5 days (fraction); higher = more cells survive
[1] = compound: CC1=CC(=C(N1C2=CC=C(C=C2)Cl)C)C(=O)CN3CCCCC3 [IU1-47] + COc1cccc2cc(-c3nc([C@H]4CC[C@H](C(=O)O)CC4)n4ncnc(N)c34)[nH]c12 [OSI-027] (partner 0.5 µM)
Outline: (§1)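 One day after seeding in 1536-well plates, lung cancer cell lines were dosed by pin tool. Dosing was either single-drug or a fixed anchor-drug dose plus five library-drug doses (not always all listed) in √10 steps. After 5 days, nuclei were stained in one fix-and-stain step and counted on 4× images, and relative viability is the nuclei count of treated wells over that of vehicle wells, given as the median of duplicate plates.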

[2] = compound: CC1=CC(=C(N1C2=CC=C(C=C2)Cl)C)C(=O)CN3CCCCC3 [IU1-47] + N=C(N)NC(=N)NCCc1ccccc1 [Phenformin] (partner 250 µM)
Outline: as §1

[3] = compound: CC1=CC(=C(N1C2=CC=C(C=C2)Cl)C)C(=O)CN3CCCCC3 [IU1-47] + O=C(c1cc(Cc2n[nH]c(=O)c3ccccc23)ccc1F)N1CCN(C(=O)C2CC2)CC1 [Olaparib] (partner 8 µM)
Outline: as §1

[4] = compound: Cc1nc(C(=O)NCC(=O)O)c(O)c2ccc(Oc3ccccc3)cc12 [FG-4592] + CCNC(=O)c1noc(-c2cc(C(C)C)c(O)cc2O)c1-c1ccc(CN2CCOCC2)cc1 [Luminespib] (partner 0.01 µM)
Outline: as §1

Cell Line: UMC-11
- relative viability ([1]; first compound 0.08 µM): 0.498
- relative viability ([1]; first compound 0.253 µM): 0.43
- relative viability ([1]; first compound 0.8 µM): 0.523
- relative viability ([1]; first compound 2.53 µM): 0.611
- relative viability ([1]; first compound 8 µM): 0.465
- relative viability ([2]; first compound 0.08 µM): 0.315
- relative viability ([2]; first compound 0.253 µM): 0.326
- relative viability ([2]; first compound 0.8 µM): 0.322
- relative viability ([2]; first compound 2.53 µM): 0.349
- relative viability ([2]; first compound 8 µM): 0.367
- relative viability ([3]; first compound 0.08 µM): 0.402
- relative viability ([3]; first compound 0.253 µM): 0.429
- relative viability ([3]; first compound 0.8 µM): 0.368
- relative viability ([3]; first compound 2.53 µM): 0.328
- relative viability ([3]; first compound 8 µM): 0.373
- relative viability ([4]; first compound 0.08 µM): 0.957
- relative viability ([4]; first compound 0.253 µM): 0.944
- relative viability ([4]; first compound 0.8 µM): 1.01
- relative viability ([4]; first compound 2.53 µM): 0.995
- relative viability ([4]; first compound 8 µM): 0.778
